The source made the active and inactive calls. The rule behind the calls is not given here.
Key:
[1] = target: T1, Carboxylic ester hydrolase (Sus scrofa) (UniProt A0A286ZKB1); assay: Inhibition of porcine cholesterol esterase at 1 nM using para-nitrophenyl butyrate as substrate after 5 mins in presence of sodium taurocholate by spectrophotometric method relative to control
T1 sequence (whole entry): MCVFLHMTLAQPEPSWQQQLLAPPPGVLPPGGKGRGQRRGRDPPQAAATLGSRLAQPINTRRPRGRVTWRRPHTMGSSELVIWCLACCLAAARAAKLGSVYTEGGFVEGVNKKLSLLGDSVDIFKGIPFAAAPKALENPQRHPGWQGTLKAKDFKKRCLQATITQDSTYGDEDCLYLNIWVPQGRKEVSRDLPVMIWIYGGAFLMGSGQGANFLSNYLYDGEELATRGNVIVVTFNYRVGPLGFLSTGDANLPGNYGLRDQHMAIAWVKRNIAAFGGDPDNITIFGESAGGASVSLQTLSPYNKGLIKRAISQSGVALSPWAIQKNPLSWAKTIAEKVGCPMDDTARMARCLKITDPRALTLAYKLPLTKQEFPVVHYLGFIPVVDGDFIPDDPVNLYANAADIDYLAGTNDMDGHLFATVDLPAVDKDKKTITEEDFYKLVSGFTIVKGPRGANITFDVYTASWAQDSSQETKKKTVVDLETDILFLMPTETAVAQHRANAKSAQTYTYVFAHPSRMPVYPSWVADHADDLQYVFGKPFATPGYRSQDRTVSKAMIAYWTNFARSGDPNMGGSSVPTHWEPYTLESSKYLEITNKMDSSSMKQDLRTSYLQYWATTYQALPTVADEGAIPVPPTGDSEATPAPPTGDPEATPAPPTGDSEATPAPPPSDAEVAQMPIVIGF

[2] = target: T1, Carboxylic ester hydrolase (Sus scrofa); assay: Inhibition of porcine cholesterol esterase at 5 nM using para-nitrophenyl butyrate as substrate after 5 mins in presence of sodium taurocholate by spectrophotometric method relative to control
[3] = target: T1, Carboxylic ester hydrolase (Sus scrofa); assay: Inhibition of porcine cholesterol esterase at 10 nM using para-nitrophenyl butyrate as substrate after 5 mins in presence of sodium taurocholate by spectrophotometric method relative to control
[4] = target: T1, Carboxylic ester hydrolase (Sus scrofa); assay: Inhibition of porcine cholesterol esterase at 25 nM using para-nitrophenyl butyrate as substrate after 5 mins in presence of sodium taurocholate by spectrophotometric method relative to control
[5] = target: T1, Carboxylic ester hydrolase (Sus scrofa); assay: Inhibition of porcine cholesterol esterase at 50 nM using para-nitrophenyl butyrate as substrate after 5 mins in presence of sodium taurocholate by spectrophotometric method relative to control
[6] = target: T2, Carboxylic ester hydrolase (Sus scrofa, UniProt A0A286ZKB1); assay: Inhibition of porcine cholesterol esterase using para-nitrophenyl butyrate as substrate after 5 mins in presence of sodium taurocholate by spectrophotometric method
T2 sequence (A0A286ZKB1 whole entry): T1 sequence (whole entry)

[7] = target: T1, Carboxylic ester hydrolase (Sus scrofa); assay: Mixed-type inhibition of porcine cholesterol esterase at 1 to 50 nM using para-nitrophenyl butyrate as substrate after 5 mins in presence of sodium taurocholate by Line-weaver-Burk plot analysis

SMILES | inhibition [1] [%] | inhibition [2] [%] | inhibition [3] [%] | inhibition [4] [%] | inhibition [5] [%] | IC50 ([6]; read-out: IC50) [nM] | inhibition [7] | IC50 [6]
O=c1cc(-c2cc(F)cc(F)c2)oc2c1ccc1ccccc12 | 60 | 80 | 90 | 96 | 100 | 0.78 | Active | –
O=c1cc(-c2ccc(OC(F)(F)F)cc2)oc2c1ccc1ccccc12 | 20 | 26 | 35 | 42 | 46 | – | – | Not Active

— ChEMBL document CHEMBL4002634, “Benzoflavones as cholesterol esterase inhibitors: Synthesis, biological evaluation and docking studies” (Bioorg Med Chem Lett, 2017)
